Experimental data from US11180462B2, “Microbiocidal oxadiazole derivatives” (SYNGENTA PARTICIPATIONS AG, priority 2015, dated 2021).

Columns and labels:
[1] = test system: Glomerella lagenarium (Colletotrichum lagenarium); test: Fungicidal activity against Glomerella lagenarium (Colletotrichum lagenarium) liquid culture / cucumber / preventative (anthracnose); format: cell-based; settings: Colletotrichum orbiculare; 20 ppm in the applied formulation; liquid culture (PDB), growth inhibition measured photometrically after 3 to 4 days; compared to untreated control; read-out: disease control
Outline: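 Photometric read-out of fungal growth after 2–7 days, expressed as percent antifungal activity versus untreated check. Cryo-stored conidia in PDB; compound at 20 ppm; dark, 24 °C, 96% RH.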

[2] = test system: Puccinia recondita f. Sp. Tritici; test: Fungicidal activity against Puccinia recondita f. sp. tritici / wheat / leaf disc preventative (brown rust); format: in vivo; settings: foliar, 200 ppm in the applied formulation, wheat leaf segments, preventative, compared to untreated control leaf disks, read-out: disease control
Procedure: Leaf disks or leaf segments of various plant species are cut from plants grown in a greenhouse. The cut leaf disks or segments are placed in multiwell plates (24-well format) onto water agar. The leaf disks are sprayed with a test solution before (preventative) or after (curative) inoculation. Compounds to be tested are prepared as DMSO solutions (max. 10 mg/ml) which are diluted to the appropriate concentration with 0.025% Tween20 just before spraying. The inoculated leaf disks or segments are incubated under defined conditions (temperature, relative humidity, light, etc.) according to the respective test system. A single evaluation of disease level is carried out 3 to 14 days after inoculation, depending on the pathosystem. Percent disease control relative to the untreated check leaf disks or segments is then calculated.
Fungicidal Activity Against Puccinia recondita f. Sp. Tritici/Wheat/Leaf Disc Preventative (Brown Rust)
Wheat leaf segments cv. Kanzler were placed on agar in multiwell plates (24-well format) and sprayed with the formulated test compound diluted in water. The leaf disks were inoculated with a spore suspension of the fungus 1 day after application. The inoculated leaf segments were incubated at 19° C. and 75% relative humidity (rh) under a light regime of 12 hours light/12 hours darkness in a climate cabinet and the activity of a compound was assessed as percent disease control compared to untreated when an appropriate level of disease damage appears in untreated check leaf segments (7 to 9 days after application).
The following compounds at 200 ppm in the applied formulation give at least 80% disease control in this test when compared to untreated control leaf disks under the same conditions, which show extensive disease development.

Compound | inhibition of growth at 20 ppm [1] [%] | pest or weed control at 200 ppm [2] [%]
O=C(c1cc2c(cc1Br)OCO2)N(Cc1ccc(-c2noc(C(F)(F)F)n2)cc1)C1CC1 [Compound 1.133, 6-bromo-N-cyclopropyl-N-[[4-[5-(trifluoromethyl)-1,2,4-oxadiazol-3-yl]phenyl]methyl]-1,3-benzodioxole-5-carboxamide] | ≥ 80 | ≥ 80
O=C(c1ccccc1)N(Cc1ccc(-c2noc(C(F)(F)F)n2)cc1)CC1CC1 [Compound 1.247, N-(cyclopropylmethyl)-N-[[4-[5-(trifluoromethyl)-1,2,4-oxadiazol-3-yl]phenyl]methyl]-benzamide] | ≥ 80 | ≥ 80
CCCON(Cc1ccc(-c2noc(C(F)(F)F)n2)cc1)C(=O)COC(C)=O [Compound 1.306, [2-oxo-2-[propoxy-[[4-[5-(trifluoromethyl)-1,2,4-oxadiazol-3-yl]phenyl]methyl]-amino]ethyl] acetate] | ≥ 80 | ≥ 80
CON(Cc1c(F)cc(-c2noc(C(F)(F)F)n2)cc1F)C(=O)c1ccccc1Cl [Compound 1.598, 2-chloro-N-[[2,6-difluoro-4-[5-(trifluoromethyl)-1,2,4-oxadiazol-3-yl]phenyl]methyl]-N-methoxy-benzamide] | ≥ 80 | ≥ 80
O=C(C1CCC1)N(Cc1ccc(-c2noc(C(F)(F)F)n2)cc1)CC1CCCO1 (stereo not shown) [Compound 1.424, N-(tetrahydrofuran-2-ylmethyl)-N-[[4-[5-(trifluoromethyl)-1,2,4-oxadiazol-3-yl]phenyl]methyl]-cyclobutane-carboxamide] | ≥ 80 | ≥ 80
CON(C(=O)C1=CCCC1)C(C)c1ccc(-c2noc(C(F)(F)F)n2)cc1 (stereo not shown) [Compound 1.258, N-methoxy-N-[1-[4-[5-(trifluoromethyl)-1,2,4-oxadiazol-3-yl]phenyl]ethyl]-cyclopentene-1-carboxamide] | ≥ 80 | ≥ 80
CC1(C(=O)N(Cc2ccc(-c3noc(C(F)(F)F)n3)cc2)C2CC2)CC1(Cl)Cl (stereo not shown) [Compound 1.107, 2,2-dichloro-N-cyclopropyl-1-methyl-N-[[4-[5-(trifluoromethyl)-1,2,4-oxadiazol-3-yl]phenyl]methyl]-cyclopropane-carboxamide] | ≥ 80 | ≥ 80
CC#CC(=O)N(Cc1ccc(-c2noc(C(F)(F)F)n2)cc1)CC1CCCO1 (stereo not shown) [Compound 1.410, N-(tetrahydrofuran-2-ylmethyl)-N-[[4-[5-(trifluoromethyl)-1,2,4-oxadiazol-3-yl]phenyl]methyl]-2-ynamide] | ≥ 80 | ≥ 80
CCC(C)N(Cc1ccc(-c2noc(C(F)(F)F)n2)cc1)C(=O)c1ccoc1 (stereo not shown) [Compound 1.405, N-sec-butyl-N-[[4-[5-(trifluoromethyl)-1,2,4-oxadiazol-3-yl]phenyl]methyl]-furan-3-carboxamide] | ≥ 80 | ≥ 80
C#CCN(Cc1ccc(-c2noc(C(F)(F)F)n2)cc1)C(=O)CC1CCCC1 [Compound 1.152, 2-cyclopentyl-N-prop-2-ynyl-N-[[4-[5-(trifluoromethyl)-1,2,4-oxadiazol-3-yl]phenyl]methyl]-acetamide] | ≥ 80 | ≥ 80
C#CCCC(=O)N(Cc1ccc(-c2noc(C(F)(F)F)n2)cc1)CC1CC1 [Compound 1.205, N-(cyclopropylmethyl)-N-[[4-[5-(trifluoromethyl)-1,2,4-oxadiazol-3-yl]phenyl]methyl]pent-4-ynamide] | ≥ 80 | ≥ 80
CON(Cc1ccc(-c2noc(C(F)(F)F)n2)cc1)C(=O)N1CCCO1 [Compound 3.66, N-methoxy-N-[[4-[5-(trifluoromethyl)-1,2,4-oxadiazol-3-yl]phenyl]methyl]-isoxazolidine-2-carboxamide] | ≥ 80 | ≥ 80
O=C(c1ccoc1)N(Cc1ccc(-c2noc(C(F)(F)F)n2)cc1)CC1CCCO1 (stereo not shown) [Compound 1.449, N-(tetrahydrofuran-2-ylmethyl)-N-[[4-[5-(trifluoromethyl)-1,2,4-oxadiazol-3-yl]phenyl]methyl]-furan-3-carboxamide] | ≥ 80 | ≥ 80
C#CCOC(C(=O)N(Cc1ccc(-c2noc(C(F)(F)F)n2)cc1)OC)c1ccc(Cl)cc1 (stereo not shown) [Compound 1.69, 2-(4-chlorophenyl)-N-methoxy-2-prop-2-ynoxy-N-[[4-[5-(trifluoromethyl)-1,2,4-oxadiazol-3-yl]phenyl]methyl]-acetamide] | ≥ 80 | ≥ 80
CCCON(Cc1ccc(-c2noc(C(F)(F)F)n2)cc1)C(=O)C1(C#N)CC1 [Compound 1.313, 1-cyano-N-propoxy-N-[[4-[5-(trifluoromethyl)-1,2,4-oxadiazol-3-yl]phenyl]methyl]-cyclopropane-carboxamide] | ≥ 80 | ≥ 80
CC=CC(=O)N(OC)C(C)c1ccc(-c2noc(C(F)(F)F)n2)cc1 (stereo not shown) [Compound 1.250, N-methoxy-N-[1-[4-[5-(trifluoromethyl)-1,2,4-oxadiazol-3-yl]phenyl]ethyl]but-2-enamide] | ≥ 80 | ≥ 80
CON(C(=O)C=C(F)CCl)C(C)c1ccc(-c2noc(C(F)(F)F)n2)cc1 (stereo not shown) [Compound 1.252, 4-chloro-3-fluoro-N-methoxy-N-[1-[4-[5-(trifluoromethyl)-1,2,4-oxadiazol-3-yl]phenyl]ethyl]but-2-enamide] | ≥ 80 | ≥ 80
C#CCN(C)C(=O)N(CC)Cc1ccc(-c2noc(C(F)(F)F)n2)cc1 [Compound 3.96, 1-ethyl-3-methyl-3-prop-2-ynyl-1-[[4-[5-(trifluoromethyl)-1,2,4-oxadiazol-3-yl]phenyl]methyl]urea] | ≥ 80 | ≥ 80
CC#CC(=O)N(Cc1ccc(-c2noc(C(F)(F)F)n2)cc1)C(C)CC (stereo not shown) [Compound 1.367, N-sec-butyl-N-[[4-[5-(trifluoromethyl)-1,2,4-oxadiazol-3-yl]phenyl]methyl]-but-2-ynamide] | ≥ 80 | ≥ 80
CC(C)(CCl)C(=O)N(Cc1ccc(-c2noc(C(F)(F)F)n2)cc1)CC1CC1 [Compound 1.219, 3-chloro-N-(cyclopropylmethyl)-2,2-dimethyl-N-[[4-[5-(trifluoromethyl)-1,2,4-oxadiazol-3-yl]phenyl]methyl]-propanamide] | ≥ 80 | ≥ 80
CON(Cc1ccc(-c2noc(C(F)(F)F)n2)cc1F)C(=O)c1ccccc1Cl [Compound 1.565, 2-chloro-N-[[2-fluoro-4-[5-(trifluoromethyl)-1,2,4-oxadiazol-3-yl]phenyl]methyl]-N-methoxy-benzamide] | ≥ 80 | ≥ 80
CON(Cc1ccc(-c2noc(C(F)(F)F)n2)cc1)C(=O)C1C(C=C(Cl)Cl)C1(C)C (stereo not shown) [Compound 1.62, 3-(2,2-dichlorovinyl)-N-methoxy-2,2-dimethyl-N-[[4-[5-(trifluoromethyl)-1,2,4-oxadiazol-3-yl]phenyl]methyl]-cyclopropane-carboxamide] | – | ≥ 80
